From PMC12040169 (PLOS Biology, 2025)

Experiment: in vitro
Settings: human, hela cells, % viability
For `Cc1c(C(=O)NC(Cc2ccsc2)c2cccnc2)cnn1C` (stereo not shown) [CBK285115], the viability at 28.5 h, 10 µM was 110%.
Work on `O=C(NC(Cc1ccsc1)c1cccnc1)C1CCOC1` (stereo not shown) [CBK285116] yielded a viability at 28.5 h, 10 µM of 106%.
For `Cn1ccc(C(=O)NC(Cc2ccsc2)c2cccnc2)n1` (stereo not shown) [CBK285117], the viability at 28.5 h, 10 µM was 107%.
With `Cn1cc(Cl)c(C2CCCCCN2C(=O)c2cc(C3CC3)on2)n1` (stereo not shown) [CBK285120] the viability at 28.5 h, 10 µM was 109%.
Molecule `Cc1csc(C(Cc2ccsc2)NC(=O)C2CCCO2)n1` (stereo not shown) [CBK285122] has a viability at 28.5 h, 10 µM of 107%.
With `Cc1csc(C(Cc2cccs2)NC(=O)CN(C)C)n1` (stereo not shown) [CBK285124] the viability at 28.5 h, 10 µM was 97.9%.
Work on `Cc1nonc1CC(=O)N[C@H]1C2CCCCC2[C@@H]1c1ccccc1` (stereo partly shown) [CBK285126] yielded a viability at 28.5 h, 10 µM of 102%.
In the case of `O=C(c1ccc(F)cc1)c1cn(CCO)c2c(Cl)nccc12` [CBK285129], the viability at 28.5 h, 10 µM was 106%.
For `O=C(NC(Cc1cccs1)c1nccs1)c1ccncc1` (stereo not shown) [CBK285134], the viability at 28.5 h, 10 µM was 93.9%.
In the case of `O=C(Cn1cccn1)NC(Cc1cccs1)c1nccs1` (stereo not shown) [CBK285136], the viability at 28.5 h, 10 µM was 94.4%.
In the case of `Cn1cc(C(=O)NC(Cc2ccsc2)c2nccs2)ccc1=O` (stereo not shown) [CBK285140], the viability at 28.5 h, 10 µM was 98.5%.
With `C=CCn1cc(CN2CCCC(O)(c3ccc(F)cc3)CC2)c(C)n1` (stereo not shown) [CBK285144] the viability at 28.5 h, 10 µM was 92%.
Molecule `Cn1ncc(Cl)c1C1CCCCCN1C(=O)c1cccnc1` (stereo not shown) [CBK285146] has a viability at 28.5 h, 10 µM of 108%.
For `Cc1csc(C(Cc2ccsc2)NC(=O)c2cnn(C)c2C)n1` (stereo not shown) [CBK285148], the viability at 28.5 h, 10 µM was 104%.
In the case of `Cc1csc(C(Cc2ccsc2)NC(=O)CCn2cccn2)n1` (stereo not shown) [CBK285149], the viability at 28.5 h, 10 µM was 93.7%.
With `Cc1csc(C(Cc2ccsc2)NC(=O)C2CCOC2)n1` (stereo not shown) [CBK285150] the viability at 28.5 h, 10 µM was 94.9%.
In the case of `Cc1cnn(CC(=O)NC(Cc2ccsc2)c2nc(C)cs2)c1` (stereo not shown) [CBK285151], the viability at 28.5 h, 10 µM was 86.6%.
Work on `Cc1ncccc1C(=O)NC(Cc1cccs1)c1nccs1` (stereo not shown) [CBK285153] yielded a viability at 28.5 h, 10 µM of 91.4%.
`O=C(c1cccnc1)N1CCCC(c2cc3ccccc3cn2)C1` (stereo not shown) [CBK285154] gave a viability at 28.5 h, 10 µM of 98.6%.
In the case of `Cn1cc(C(=O)N2CCCC(c3cc4ccccc4cn3)C2)cn1` (stereo not shown) [CBK285155], the viability at 28.5 h, 10 µM was 106%.
`CCc1cc(C(=O)N2CCCC(c3cc4ccccc4cn3)C2)on1` (stereo not shown) [CBK285156] showed a viability at 28.5 h, 10 µM of 101%.
With `O=C(Cn1c(C2CCOCC2)cc2cccnc21)NC1CCCC1` [CBK285157] the viability at 28.5 h, 10 µM was 86.3%.
Work on `O=C(CCCn1ccnc1)NC(Cc1ccsc1)c1cccnc1` (stereo not shown) [CBK285158] yielded a viability at 28.5 h, 10 µM of 94.9%.
For `c1ccc([C@@H]2CN(Cc3cccnc3)C[C@H]2c2cc[nH]n2)cc1` [CBK285160], the viability at 28.5 h, 10 µM was 88.9%.
With `C[C@H]1CN2C[C@H](O)CC2CN1Cc1cccn1Cc1ccccc1F` (stereo partly shown) [CBK285165] the viability at 28.5 h, 10 µM was 88.7%.
For `O=C(c1ccncc1)N1CCCC(c2cc3ccccc3cn2)C1` (stereo not shown) [CBK285166], the viability at 28.5 h, 10 µM was 87%.
`Cc1cnc2[nH]c(C(F)(F)F)c(CN3CCCC(CO)C3)c2c1` (stereo not shown) [CBK285167] gave a viability at 28.5 h, 10 µM of 93.6%.
`Cc1cnc2[nH]c(C3CCCN(C(=O)c4cn(C)nc4C)C3)cc2c1` (stereo not shown) [CBK285170] gave a viability at 28.5 h, 10 µM of 110%.
With `Cc1cnc2[nH]c(C3CCCN(C(=O)c4cnn(C)c4C)C3)cc2c1` (stereo not shown) [CBK285171] the viability at 28.5 h, 10 µM was 101%.
Molecule `COCC(C)NC(=O)CCn1ccc2ccncc21` (stereo not shown) [CBK285172] has a viability at 28.5 h, 10 µM of 93.8%.
`CC1(C)CCCN(C(=O)CCn2ccc3ccncc32)C1` [CBK285173] gave a viability at 28.5 h, 10 µM of 87.3%.
`CCC1(CC)CCN(C(=O)CCn2ccc3ccncc32)C1` [CBK285176] showed a viability at 28.5 h, 10 µM of 84.9%.
Molecule `CC(=O)N1CCCC(c2cc3cccnc3n2CC(=O)N(C)C)C1` (stereo not shown) [CBK285177] has a viability at 28.5 h, 10 µM of 106%.
In the case of `Cc1ccnn1CCC(=O)N1CCCC1c1nc2ccccc2[nH]1` (stereo not shown) [CBK285178], the viability at 28.5 h, 10 µM was 110%.
`Cn1cc([C@@H]2CN(Cc3ccc(F)c(F)c3)C[C@H]2N)c2ccncc21` [CBK285179] showed a viability at 28.5 h, 10 µM of 88.3%.
For `Cc1ccc(CN2C[C@@H](N)[C@H](c3cn(C)c4cnccc34)C2)o1` [CBK285180], the viability at 28.5 h, 10 µM was 84.2%.
For `O=C(c1cccs1)N1CCC(c2onc3c2CCCC3)CC1` [CBK285181], the viability at 28.5 h, 10 µM was 93.3%.
In the case of `COC(=O)C1(Cc2cc(-c3ccccc3F)no2)CCOCC1` [CBK285182], the viability at 28.5 h, 10 µM was 87.8%.
With `Cc1ccn2cc(-c3ccc4c(c3)CC(C)N4S(C)(=O)=O)nc2c1` (stereo not shown) [CBK285183] the viability at 28.5 h, 10 µM was 84.6%.
`Cc1ccc2nc(-c3ccc4c(c3)CC(C)N4S(C)(=O)=O)cn2c1` (stereo not shown) [CBK285184] showed a viability at 28.5 h, 10 µM of 79.4%.
`CCOC(=O)CC(=O)N1CCC(c2onc3c2CC(C)CC3)CC1` (stereo not shown) [CBK285187] gave a viability at 28.5 h, 10 µM of 100%.
Work on `CN(C)CC1CN(C(=O)c2ccccc2F)Cc2ccccc2O1` (stereo not shown) [CBK285188] yielded a viability at 28.5 h, 10 µM of 86.9%.
`O=C(C1CC1)N1CCc2cc(-c3cn4ccccc4n3)ccc21` [CBK285193] showed a viability at 28.5 h, 10 µM of 99.2%.
Molecule `CC1Cc2cc(-c3cn4ccccc4n3)ccc2N1S(C)(=O)=O` (stereo not shown) [CBK285194] has a viability at 28.5 h, 10 µM of 94.3%.
`Cc1c(C(=O)N2CCC(c3nc(C)n4ccsc34)CC2)cnn1C` [CBK285201] gave a viability at 28.5 h, 10 µM of 111%.
Work on `OC1(c2cccnc2)C2CCCC1CN(Cc1cccc(F)c1F)C2` (stereo not shown) [CBK285205] yielded a viability at 28.5 h, 10 µM of 88.1%.
